{"source": "patent US20080064691A1", "about": "“Heterocyclic Amide Derivatives Which Possess Glycogen Phosphorylase Inhibitory Activity” (AstraZeneca AB, priority 2003, published 2008)", "key": {"conscious dogs": {"tested_on": "conscious dogs", "conditions": "cited from earlier work"}, "db/db and ob/ob mice": {"tested_on": "db/db and ob/ob mice", "conditions": "db/db and ob/ob mice following treatment; cited from earlier work"}, "hepatocytes": {"tested_on": "hepatocytes", "conditions": "cited from earlier work"}, "[1]": {"biological_target": "T1, Human recombinant liver glycogen phosphorylase a (hrl GPα) (Homo sapiens, UniProt P06737)", "T1 sequence (P06737 1-847)": "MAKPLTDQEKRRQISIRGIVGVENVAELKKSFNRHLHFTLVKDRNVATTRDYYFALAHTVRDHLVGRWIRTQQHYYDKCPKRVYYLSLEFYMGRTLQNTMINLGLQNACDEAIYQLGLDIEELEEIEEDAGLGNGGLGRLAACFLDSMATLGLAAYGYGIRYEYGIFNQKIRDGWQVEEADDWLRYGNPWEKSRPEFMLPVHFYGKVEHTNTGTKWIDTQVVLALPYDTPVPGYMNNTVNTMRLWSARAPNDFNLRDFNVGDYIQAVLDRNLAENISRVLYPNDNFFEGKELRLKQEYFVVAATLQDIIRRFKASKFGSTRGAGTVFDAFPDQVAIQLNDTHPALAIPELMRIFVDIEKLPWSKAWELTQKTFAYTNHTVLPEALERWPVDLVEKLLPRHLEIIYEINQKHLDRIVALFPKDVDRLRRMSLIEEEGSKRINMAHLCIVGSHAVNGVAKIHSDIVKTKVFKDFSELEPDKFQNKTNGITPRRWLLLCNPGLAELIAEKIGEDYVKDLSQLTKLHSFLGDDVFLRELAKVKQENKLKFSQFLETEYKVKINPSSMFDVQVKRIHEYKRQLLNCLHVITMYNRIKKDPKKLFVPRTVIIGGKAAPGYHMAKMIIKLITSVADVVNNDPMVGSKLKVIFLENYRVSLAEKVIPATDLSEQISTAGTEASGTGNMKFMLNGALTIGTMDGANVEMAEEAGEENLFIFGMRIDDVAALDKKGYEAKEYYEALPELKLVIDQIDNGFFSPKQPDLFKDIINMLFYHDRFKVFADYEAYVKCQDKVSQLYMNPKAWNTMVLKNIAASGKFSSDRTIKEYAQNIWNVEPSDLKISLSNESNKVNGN", "assay": "glycogen phosphorylase inhibition, multienzyme coupled assay (glucose-1-phosphate production from glycogen)", "type": "biochemical", "conditions": "hrl GPα 20 nM, 6 hours at 30° C.", "description": "The activity of the compounds is determined by measuring the inhibitory effect of the compounds on glycogen degradation, the production of glucose-1-phosphate from glycogen is monitored by the multienzyme coupled assay, as described in EP 0 846 464 A2, general method of Pesce et al (Pesce, M A, Bodourian, S H, Harris, R C, and Nicholson, J F (1977) Clinical Chemistry 23, […]). The reactions were in 384 well microplate format in a volume of 50 μl. The change in fluorescence due to the conversion of the co-factor NAD to NADH is measured at 340 nm excitation, 465 nm emission in a Tecan Ultra Multifunctional Microplate Reader. The reaction is in 50 mM HEPES, 3.5 mM KH2PO4, 2.5 mM MgCl2, 2.5 mM ethylene glycol-bis(b-aminoethyl ether) N,N,N′,N′-tetraacetic acid, 100 mM KCl, 8 mM D-(+)-glucose pH7.2, containing 0.5 mM dithiothreitol, the assay buffer solution. Human recombinant liver glycogen phosphorylase a (hrl GPα) 20 nM is pre-incubated in assay buffer solution with 6.25 mM NAD, 1.25 mg type III glycogen at 1.25 mg ml^−1 the reagent buffer, for 30 minutes. […] The non-inhibited activity of GPα is measured in the presence of 10 μl 5% DMSO in assay buffer solution and maximum inhibition measured in the presence of 5 mgs ml^−1 N-ethylmaleimide. […] Relative Fluoresence Units (RFUs) are measured at 340 nm excitation, 465 nm emission . […]"}}, "note": "pIC50: −log10 of the molar value.", "data": [{"smiles": "CCN1C(C)=C(C(=O)OC(C)C)C(c2ccccc2Cl)C2=C1COC2=O", "note": "(stereo not drawn) [Bay R3401]", "values": [{"measurement": "arterial plasma glucose following a glucagon challenge", "setting": "conscious dogs", "value": "reduced significantly"}, {"measurement": "hepatic glucose output following a glucagon challenge", "setting": "conscious dogs", "value": "reduced significantly"}]}, {"smiles": "CN(C)C(=O)[C@H](O)[C@H](Cc1ccccc1)NC(=O)c1cc2cc(Cl)ccc2[nH]1", "note": "[CP91149]", "values": [{"measurement": "plasma glucose concentration", "setting": "db/db and ob/ob mice", "value": "reduced, in a dose related manner"}, {"measurement": "glucagon stimulated glycogenolysis", "setting": "hepatocytes", "value": "reduce"}, {"measurement": "glucose output", "setting": "hepatocytes", "value": "reduce"}]}, {"smiles": "O=C(N[C@@H](Cc1ccc(F)cc1)C(=O)N1CCC(O)CC1)c1cc2cc(Cl)ccc2[nH]1", "note": "[CP320626]", "values": [{"measurement": "plasma glucose concentration", "setting": "db/db and ob/ob mice", "value": "reduced, in a dose related manner"}, {"measurement": "glucagon stimulated glycogenolysis", "setting": "hepatocytes", "value": "reduce"}, {"measurement": "glucose output", "setting": "hepatocytes", "value": "reduce"}]}, {"smiles": "O=C(N[C@@H]1Cc2ccccc2[C@H]1CO)c1cc2cc(Cl)sc2[nH]1", "note": "[Example 5, 2-Chloro-N-[(1R,2R)-1-(hydroxymethyl)-2,3-dihydro-1H-inden-2-yl]-6H-thieno[2,3-b]pyrrole-5-carboxamide]", "values": [{"measurement": "pIC50", "setting": "[1]", "value": 6.31}]}]}
